From patent US20220142165A1 (priority 2019, published 2022)

Columns and labels:
[1] = test system: tomato late blight pathogen (Phylophihora infeslans); experiment: whole plant or invertebrate; type: in vivo; details: Phytophthora infestans, 96 h, read-out: Control value
[2] = test system: grape downy mildew pathogen (Plasmopara viticola); experiment: Grape downy mildew control test (Test Example 2); type: in vivo; details: 100 ppm by mass, sprayed on grape leaf disc (variety Chardonnay) before inoculation, blotch area ratio seven days after inoculation, 20° C.; for pest or weed control at 100 ppm: Plasmopara viticola, foliar, 168 h
Experimental: 5 parts by mass of the compound according to the present invention, 93.5 parts by mass of dimethylformamide, and 1.5 parts by mass of polyoxyethylene alkylaryl ether were mixed and dissolved to prepare an emulsion (I) containing 5% by mass of an active ingredient.
The control value was calculated according to the following formula.
Control value (%)=100−{blotch area ratio in treated area/blotch area ratio in untreated area}×100
Water was added to the emulsion (I) such that the concentration of the heterocyclic compound became 100 ppm by mass, and then the heterocyclic compound was dissolved therein to obtain a pharmaceutical solution. Then, the pharmaceutical solution was sprayed on a leaf disc of grape (variety “Chardonnay”) placed on agar in a 6-well plate. After air-drying, the leaf disc on which the pharmaceutical solution was sprayed was inoculated with zoosporangia of grape downy mildew pathogen (Plasmopara viticola) in a suspension by spraying the suspension thereon (treated area). As a control, a leaf disc on which no pharmaceutical solution was sprayed was inoculated in the same way as mentioned above (untreated area). The resultant leaf discs were left in a moist chamber at 20° C. Seven days after inoculation, the grape leaf discs were visually observed to measure the blotch area ratio to calculate the control value.

Row | SMILES | pest or weed control at 125 ppm [1] [%] | pest or weed control at 100 ppm [2] [%] | melting point [°C] | Control value [2]
1 | Cn1cnc2ccc(OC(c3ccc(F)cn3)c3nnco3)cc21 (stereo not drawn) [b-6] | ≥ 75 |  |  | 
2 | CC#Cc1ccnc(C(Oc2ccc3ncsc3c2)c2nnco2)c1 (stereo not drawn) [a-45, 2-((benzo[d]thiazol-6-yloxy)(4-(prop-1-yn-1-yl)pyridin-2-yl)methyl)-1,3,4-oxadiazole] | ≥ 75 | ≥ 75 |  | 
3 | CCc1cc(OC(c2cc(/C=N/OC)c(F)cn2)c2nnco2)cc2sc(C)nc12 (stereo not drawn) [b-46] | ≥ 75 | ≥ 75 | 145 to 147 | 
4 | CO/N=C/c1cc(C(Oc2cc(C)c3nc(C)sc3c2)c2nnco2)ncc1F (stereo not drawn) [b-47] | ≥ 75 | ≥ 75 | 151 to 154 | 
5 | CO/N=C/c1ccnc(C(Oc2ccc3ncsc3c2)c2nnco2)n1 (stereo not drawn) [b-25] | ≥ 75 |  |  | 
6 | CNc1nc2ccc(OC(c3cc(/C=N/OC)ccn3)c3nnco3)cc2s1 (stereo not drawn) [b-36] | ≥ 75 | ≥ 75 |  | 
7 | C#CCO/N=C/c1ccnc(C(Oc2ccc3nc(C)sc3c2)c2nnco2)c1 (stereo not drawn) [b-26] | ≥ 75 | ≥ 75 | 118 to 121 | 
8 | Fc1ccc(C(Oc2cc(Br)c3ncsc3c2)c2nnco2)nc1 (stereo not drawn) [a-20, 2-((4-bromobenzo[d]thiazol-6-yloxy)(5-fluoropyridin-2-yl)methyl)-1,3,4-oxadiazole] | ≥ 75 | ≥ 75 |  | 
9 | CO/N=C/c1ccnc(C(Oc2ccc3nnsc3c2)c2nnco2)c1 (stereo not drawn) [b-16] |  | ≥ 75 | 172 to 173 | 
10 | FC(F)(F)CO/N=C/c1ccnc(C(Oc2ccc3ncsc3c2)c2nnco2)c1 (stereo not drawn) [b-19] |  | ≥ 75 | 128 to 130 | 
11 | Cn1cnc2c(F)cc(OC(c3ccc(F)cn3)c3nnco3)cc21 (stereo not drawn) [b-8] | ≥ 75 |  |  | 
12 | CO/N=C/c1cc(C(Oc2ccc3nc(CF)sc3c2)c2nnco2)ncc1F (stereo not drawn) [b-66] | ≥ 75 | ≥ 75 | 133 to 134 | 
13 | CO/N=C/c1cc(C(Oc2ccc3nc(I)sc3c2)c2nnco2)ncc1F (stereo not drawn) [b-53] |  | ≥ 75 | 166 to 168 | 
14 | Fc1cnc(C(Oc2ccc3ncsc3c2)c2nnco2)cc1/C=N/OCC1CC1 (stereo not drawn) [b-50] | ≥ 75 | ≥ 75 | 129 to 131 | 
15 | CC(C)=NOc1ccnc(C(Oc2ccc3ncsc3c2)c2nnco2)c1 (stereo not drawn) [b-33] | ≥ 75 | ≥ 75 |  | 
16 | CO/N=C/c1cc(C(Oc2ccc3ncsc3c2N)c2nnco2)ncc1F (stereo not drawn) [b-78] | ≥ 75 |  |  | 
17 | c1ccc(C(Nc2ccc3ncsc3c2)c2nnco2)cc1 (stereo not drawn) [b-5] | ≥ 75 |  |  | 
18 | C(=N\OCC1CC1)/c1ccnc(C(Oc2ccc3ncsc3c2)c2nnco2)c1 (stereo not drawn) [b-68] | ≥ 75 | ≥ 75 |  | 
19 | CO/N=C/c1cc(C(Oc2ccc3nc(C(F)F)sc3c2)c2nnco2)ncc1F (stereo not drawn) [b-72] |  | ≥ 75 | 143 to 144 | 
20 | CO/N=C/c1cc(C(Oc2ccc3ncsc3c2C)c2nnco2)ncc1F (stereo not drawn) [b-77] |  | ≥ 75 | 108 to 110 | 

Row | SMILES | pest or weed control at 125 ppm [1] [%] | pest or weed control at 100 ppm [2] [%] | melting point [°C] | Control value [2]
21 | CCCO/N=C/c1ccnc(C(Oc2ccc3ncsc3c2)c2nnco2)c1 (stereo not drawn) [b-69] | ≥ 75 | ≥ 75 |  | 
22 | CNc1nc2ccc(OC(c3cc(/C=N/OC)c(F)cn3)c3nnco3)cc2s1 (stereo not drawn) [b-74] | ≥ 75 | ≥ 75 | 181 to 182 | 
23 | CO/N=C/c1cc(C(Oc2ccc3ncsc3c2)c2nnco2)ncc1C (stereo not drawn) [b-59] |  | ≥ 75 |  | 
24 | CCc1cc(OC(c2cc(/C=N/OC)c(F)cn2)c2nnco2)cc2scnc12 (stereo not drawn) [b-44] | ≥ 75 | ≥ 75 | 114 to 117 | 
25 | CO/N=C/c1cc(C(Oc2ccc3ncsc3c2)c2nnco2)ncc1SC (stereo not drawn) [b-41] |  | ≥ 75 |  | 
26 | C=Cc1cc(OC(c2cc(/C=N/OC)c(F)cn2)c2nnco2)cc2sc(C)nc12 (stereo not drawn) [b-48] | ≥ 75 | ≥ 75 | 116 to 119 | 
27 | CO/N=C/c1cc(C(Oc2ccc3ncsc3c2)c2nnco2)ncc1Cl (stereo not drawn) [b-37] | ≥ 75 | ≥ 75 |  | 
28 | CO/N=C\c1cc(C(Oc2ccc3ncsc3c2)c2nnco2)ncc1F (stereo not drawn) [b-38] | ≥ 75 | ≥ 75 |  | 
29 | CO/N=C/c1ccnc(C(Oc2ccc3ncsc3c2)c2nnco2)c1 (stereo not drawn) [b-9] | ≥ 75 | ≥ 75 |  | 
30 | CO/N=C/c1ccnc(C(Oc2cc(C)c3ncsc3c2)c2nnco2)c1 (stereo not drawn) [b-23] | ≥ 75 | ≥ 75 | 146 to 148 | 
31 | C#CCO/N=C/c1ccnc(C(Oc2ccc3ncsc3c2)c2nnco2)c1 (stereo not drawn) [b-20] | ≥ 75 | ≥ 75 |  | 
32 | CO/N=C/c1cc(C(Oc2cc(Cl)c3ncsc3c2)c2nnco2)ncc1F (stereo not drawn) [b-55] | ≥ 75 | ≥ 75 | 153 to 154 | 
33 | CO/N=C/c1cc(C(Oc2cc(Br)c3ncsc3c2)c2nnco2)ncc1F (stereo not drawn) [b-56] | ≥ 75 |  | 170 to 172 | 
34 | CO/N=C/c1cc(C(Oc2ccc3nc(Br)sc3c2)c2nnco2)ncc1F (stereo not drawn) [b-43] |  | ≥ 75 | 151 to 154 | 
35 | CO/N=C/c1cc(C(Oc2cc(OC)c3ncsc3c2)c2nnco2)ncc1F (stereo not drawn) [b-84] | ≥ 75 | ≥ 75 | 103 to 104 | 
36 | CC(C)O/N=C/c1ccnc(C(Oc2ccc3ncsc3c2)c2nnco2)c1 (stereo not drawn) [b-18] | ≥ 75 | ≥ 75 |  | 
37 | Cn1cnc2ccc(OC(c3ccccc3)c3nnco3)cc21 (stereo not drawn) [b-3] | ≥ 75 |  | 114 to 116 | 
38 | CCCCON=CC(Oc1ccc2ncsc2c1)c1nnco1 (stereo not drawn) [b-83] |  | ≥ 75 |  | 
39 | Cc1nc2ccc(OC(c3cc(/C=N/OCC4CC4)c(F)cn3)c3nnco3)cc2s1 (stereo not drawn) [b-49] | ≥ 75 | ≥ 75 |  | 
40 | CCc1cc(OC(c2cc(/C=N/OC)c(Br)cn2)c2nnco2)cc2sc(C)nc12 (stereo not drawn) [b-52] |  | ≥ 75 | 160 to 161 | 

Row | SMILES | pest or weed control at 125 ppm [1] [%] | pest or weed control at 100 ppm [2] [%] | melting point [°C] | Control value [2]
41 | c1ccc(-c2ccnc(C(Oc3ccc4nnsc4c3)c3nnco3)c2)cc1 (stereo not drawn) [b-51] | ≥ 75 | ≥ 75 |  | 
42 | COCCO/N=C/c1cc(C(Oc2ccc3ncsc3c2)c2nnco2)ncc1F (stereo not drawn) [b-85] | ≥ 75 | ≥ 75 |  | 
43 | CO/N=C/c1cc(C(Oc2ccc3nc(OC)sc3c2)c2nnco2)ncc1F (stereo not drawn) [b-54] |  | ≥ 75 | 134 to 136 | 
44 | COCCO/N=C/c1ccnc(C(Oc2ccc3ncsc3c2)c2nnco2)c1 (stereo not drawn) [b-70] | ≥ 75 | ≥ 75 |  | 
45 | CO/N=C/c1ccnc(C(Oc2cc(Br)c3ncsc3c2)c2nnco2)c1 (stereo not drawn) [b-13] | ≥ 75 | ≥ 75 |  | 
46 | COCOCc1ccnc(C(Oc2ccc3nc(C)sc3c2)c2nnco2)c1 (stereo not drawn) [a-175] |  |  |  | a-175%
47 | CCc1nc2ccc(OC(c3cc(/C=N/OC)ccn3)c3nnco3)cc2s1 (stereo not drawn) [b-29] | ≥ 75 | ≥ 75 |  | 
48 | C(=NOCc1ccccc1)C(Oc1ccc2ncsc2c1)c1nnco1 (stereo not drawn) [b-81] |  | ≥ 75 |  | 
49 | CCc1cc(OC(c2cc(/C=N/OC)ccn2)c2nnco2)cc2scnc12 (stereo not drawn) [b-14] | ≥ 75 | ≥ 75 |  | 
50 | C(=N\OCc1nnco1)/c1ccnc(C(Oc2ccc3ncsc3c2)c2nnco2)c1 (stereo not drawn) [b-67] | ≥ 75 |  |  | 
51 | Fc1ccc(C(Oc2ccc3ncsc3c2)c2nnco2)nc1 (stereo not drawn) [a-8, 2-((benzo[d]thiazol-6-yloxy)(5-fluoropyridin-2-yl)methyl)-1,3,4-oxadiazole] | ≥ 75 | ≥ 75 |  | 
52 | CCCCC(Oc1ccc2ncsc2c1)c1nnco1 (stereo not drawn) [a-1, 2-(1-(benzo[d]thiazol-6-yloxy)pentyl)-1,3,4-oxadiazole] | ≥ 75 |  |  | 
53 | CCCCC(Oc1ccc2ncn(C)c2c1)c1nnco1 (stereo not drawn) [b-4] | ≥ 75 |  |  | 
54 | CO/N=C/c1cc(C(Oc2ccc3ncsc3c2)c2nnco2)ncc1[S+](C)[O-] (stereo not drawn) [b-61] |  | ≥ 75 | 85 to 88 | 
55 | CCOCc1ccnc(C(Oc2ccc3ncsc3c2)c2nnco2)c1 (stereo not drawn) [a-75] |  |  |  | a-75%
56 | COCCO/N=C/c1cc(C(Oc2ccc3nc(C)sc3c2)c2nnco2)ncc1F (stereo not drawn) [b-86] | ≥ 75 | ≥ 75 |  | 
57 | CO/N=C/c1cc(C(Oc2ccc3nc(C)sc3c2)c2nnco2)ncc1F (stereo not drawn) [b-71] |  |  | 167 to 168 | 
58 | Cn1cnc2ccc(OC(c3ccc(Cl)cc3)c3nnco3)cc21 (stereo not drawn) [b-7] | ≥ 75 |  |  | 
59 | CO/N=C/c1ccnc(C(Oc2ccc3nc(OC)sc3c2)c2nnco2)c1 (stereo not drawn) [b-28] |  | ≥ 75 |  | 
60 | CO/N=C/c1cc(C(Oc2ccc3ncsc3c2)c2nnco2)ncc1Br (stereo not drawn) [b-39] | ≥ 75 | ≥ 75 |  | 
